Results: ChEMBL document CHEMBL4024727, “Synthesis and antimycobacterial screening of new thiazolyl-oxazole derivatives” (Eur J Med Chem, 2017)
Values after ≈ are worked out from the molar mass of the structure shown.

Assays:
[1] = test system: Mycobacterium tuberculosis; assay: Growth inhibition of Mycobacterium bovis BCG ATCC 35743 at 30 ug/ml by nitrate reductase based two-fold dilution assay relative to control; assay type: functional; details: BCG str. ATCC 35743, read-out: GI
[2] = (§1) Growth inhibition of human HeLa cells by MTT assay; assay type: cell-based; details: HeLa cells
HeLa = assay: as §1; assay type: cell-based; details: hela
Pseudomonas fluorescens [3] = assay: Growth inhibition of Pseudomonas fluorescens NCIM 2059 at 1 ug/ml measured after 8 hrs relative to control; assay type: functional; details: NCIM 2059, 8 h, read-out: GI
[4] = test system: Mycobacterium tuberculosis; assay: Growth inhibition of Mycobacterium tuberculosis H37Ra ATCC 25177 at 3 ug/ml by XTT dye based two-fold dilution method relative to control; assay type: functional; details: read-out: GI
[5] = Selectivity index, ratio of GI50 for human A549 cells to MIC for Mycobacterium bovis BCG ATCC 35743 dormant stage; assay type: toxicity; details: read-out: Selectivity Index
Escherichia coli [6] = assay: Antibacterial activity against Escherichia coli NCIM 2576 measured after 8 hrs; assay type: functional; details: NCIM 2576, 8 h
[7] = test system: Mycobacterium tuberculosis; assay: Growth inhibition of Mycobacterium bovis BCG ATCC 35743 at 1 ug/ml by nitrate reductase based two-fold dilution assay relative to control; assay type: functional; details: BCG str. ATCC 35743, read-out: GI
Staphylococcus aureus [8] = assay: Growth inhibition of Staphylococcus aureus NCIM 2602 at 30 ug/ml measured after 12 hrs relative to control; assay type: functional; details: NCIM 2602, 12 h, read-out: GI
Escherichia coli [9] = assay: Growth inhibition of Escherichia coli NCIM 2576 at 10 ug/ml measured after 8 hrs relative to control; assay type: functional; details: NCIM 2576, 8 h, read-out: GI
[10] = (§2) Growth inhibition of human A549 cells by MTT assay; assay type: cell-based; details: A549 cells
A549 = assay: as §2; assay type: cell-based; details: a549
Escherichia coli [11] = assay: Growth inhibition of Escherichia coli NCIM 2576 at 1 ug/ml measured after 8 hrs relative to control; assay type: functional; details: NCIM 2576, 8 h, read-out: GI
[12] = Selectivity index, ratio of GI50 for human PANC1 cells to MIC for Mycobacterium bovis BCG ATCC 35743 dormant stage; assay type: toxicity; details: PANC-1 cells, read-out: Selectivity Index
[13] = Selectivity index, ratio of GI50 for human PANC1 cells to MIC for Mycobacterium tuberculosis H37Ra ATCC 25177 dormant stage; assay type: toxicity; details: PANC-1 cells, read-out: Selectivity Index
Staphylococcus aureus [14] = assay: Growth inhibition of Staphylococcus aureus NCIM 2602 at 10 ug/ml measured after 12 hrs relative to control; assay type: functional; details: NCIM 2602, 12 h, read-out: GI
Bacillus subtilis [15] = assay: Growth inhibition of Bacillus subtilis NCIM 2162 at 10 ug/ml measured after 12 hrs relative to control; assay type: functional; details: NCIM 2162, 12 h, read-out: GI
[16] = test system: Mycobacterium tuberculosis; assay: Growth inhibition of Mycobacterium bovis BCG ATCC 35743 at 10 ug/ml by nitrate reductase based two-fold dilution assay relative to control; assay type: functional; details: BCG str. ATCC 35743, read-out: GI
[17] = Selectivity index, ratio of GI50 for human HeLa cells to MIC for Mycobacterium bovis BCG ATCC 35743 dormant stage; assay type: toxicity, cell-based; details: read-out: Selectivity Index
Pseudomonas fluorescens [18] = assay: Antibacterial activity against Pseudomonas fluorescens NCIM 2059 measured after 8 hrs; assay type: functional; details: NCIM 2059, 8 h
Pseudomonas fluorescens [19] = assay: Growth inhibition of Pseudomonas fluorescens NCIM 2059 at 10 ug/ml measured after 8 hrs relative to control; assay type: functional; details: NCIM 2059, 8 h, read-out: GI
[20] = test system: Mycobacterium tuberculosis; assay: Antitubercular activity against Mycobacterium bovis BCG ATCC 35743 dormant stage by nitrate reductase based two-fold dilution assay; assay type: functional; details: BCG str. ATCC 35743
[21] = (§3) Growth inhibition of human PANC1 cells by MTT assay; assay type: cell-based, PANC-1; details: PANC-1 cells
PANC-1 = assay: as §3; assay type: cell-based; details: panc-1
Escherichia coli [22] = assay: Growth inhibition of Escherichia coli NCIM 2576 at 30 ug/ml measured after 8 hrs relative to control; assay type: functional; details: NCIM 2576, 8 h, read-out: GI
Staphylococcus aureus [23] = assay: Growth inhibition of Staphylococcus aureus NCIM 2602 at 1 ug/ml measured after 12 hrs relative to control; assay type: functional; details: NCIM 2602, 12 h, read-out: GI
[24] = test system: Mycobacterium tuberculosis; assay: Growth inhibition of Mycobacterium tuberculosis H37Ra ATCC 25177 at 10 ug/ml by XTT dye based two-fold dilution method relative to control; assay type: functional; details: read-out: GI
[25] = test system: Mycobacterium tuberculosis; assay: Growth inhibition of Mycobacterium tuberculosis H37Ra ATCC 25177 at 30 ug/ml by XTT dye based two-fold dilution method relative to control; assay type: functional; details: read-out: GI
Bacillus subtilis [26] = assay: Growth inhibition of Bacillus subtilis NCIM 2162 at 1 ug/ml measured after 12 hrs relative to control; assay type: functional; details: NCIM 2162, 12 h, read-out: GI
Bacillus subtilis [27] = assay: Growth inhibition of Bacillus subtilis NCIM 2162 at 30 ug/ml measured after 12 hrs relative to control; assay type: functional; details: NCIM 2162, 12 h, read-out: GI
Staphylococcus aureus [28] = assay: Antibacterial activity against Staphylococcus aureus NCIM 2602 measured after 12 hrs; assay type: functional; details: NCIM 2602, 12 h
[29] = Selectivity index, ratio of GI50 for human HeLa cells to MIC for Mycobacterium tuberculosis H37Ra ATCC 25177 dormant stage; assay type: toxicity, cell-based; details: read-out: Selectivity Index
[30] = test system: Mycobacterium tuberculosis; assay: Antitubercular activity against Mycobacterium tuberculosis H37Ra ATCC 25177 dormant stage by XTT dye based two-fold dilution method; assay type: functional
Bacillus subtilis [31] = assay: Antibacterial activity against Bacillus subtilis NCIM 2162 measured after 12 hrs; assay type: functional; details: NCIM 2162, 12 h
Pseudomonas fluorescens [32] = assay: Growth inhibition of Pseudomonas fluorescens NCIM 2059 at 30 ug/ml measured after 8 hrs relative to control; assay type: functional; details: NCIM 2059, 8 h, read-out: GI
[33] = Selectivity index, ratio of GI50 for human A549 cells to MIC for Mycobacterium tuberculosis H37Ra ATCC 25177 dormant stage; assay type: toxicity; details: read-out: Selectivity Index

Question: With Cc1nc(-c2ccccc2)oc1-c1csc(-c2ccccc2)n1 as the molecule, how does the inhibition of growth at 30 µg/mL [1] read?
Answer: The inhibition of growth at 30 µg/mL was 92%.

Question: And the GI50 [2]?
Answer: The GI50 was 123 µg/mL (≈ 387 µM).

Question: What about the GI90 (HeLa) of the same molecule?
Answer: Its GI90 is > 250 µg/mL.

Question: And the inhibition of growth at 1 µg/mL (Pseudomonas fluorescens [3])?
Answer: The inhibition of growth at 1 µg/mL was 88.9%.

Question: What about the inhibition of growth at 3 µg/mL [4] of the same molecule?
Answer: Its inhibition of growth at 3 µg/mL is 56%.

Question: And the selectivity ratio [5]?
Answer: The selectivity ratio was 9.

Question: And the MIC (Escherichia coli [6])?
Answer: The MIC was 7.54 µM (≈ 2.4 µg/mL).

Question: And the inhibition of growth at 1 µg/mL [7]?
Answer: The inhibition of growth at 1 µg/mL was 63%.

Question: What about the inhibition of growth at 30 µg/mL (Staphylococcus aureus [8]) of the same molecule?
Answer: The inhibition of growth at 30 µg/mL was 94.2%.

Question: What about the inhibition of growth at 10 µg/mL (Escherichia coli [9]) of the same molecule?
Answer: The inhibition of growth at 10 µg/mL was 94.2%.

Question: What about the GI50 [10] of the same molecule?
Answer: Its GI50 is > 250 µg/mL.

Question: And the GI90 (A549)?
Answer: Its GI90 is > 250 µg/mL.

Question: What about the inhibition of growth at 1 µg/mL (Escherichia coli [11]) of the same molecule?
Answer: The inhibition of growth at 1 µg/mL was 91.2%.

Question: And the selectivity ratio [12]?
Answer: The selectivity ratio was 9.

Question: And the selectivity ratio [13]?
Answer: Its selectivity ratio is 9.

Question: What about the inhibition of growth at 10 µg/mL (Staphylococcus aureus [14]) of the same molecule?
Answer: Its inhibition of growth at 10 µg/mL is 89.9%.

Question: And the inhibition of growth at 10 µg/mL (Bacillus subtilis [15])?
Answer: The inhibition of growth at 10 µg/mL was 93.2%.

Question: What about the inhibition of growth at 10 µg/mL [16] of the same molecule?
Answer: The inhibition of growth at 10 µg/mL was 63%.

Question: And the selectivity ratio [17]?
Answer: The selectivity ratio was 5.

Question: What about the MIC (Pseudomonas fluorescens [18]) of the same molecule?
Answer: Its MIC is 13.8 µM (≈ 4.4 µg/mL).

Question: What about the inhibition of growth at 10 µg/mL (Pseudomonas fluorescens [19]) of the same molecule?
Answer: Its inhibition of growth at 10 µg/mL is 93.4%.

Question: What about the IC50 [20] of the same molecule?
Answer: Its IC50 is 7.34 µM.

Question: What about the MIC90 [20] of the same molecule?
Answer: The MIC90 was 85.9 µM (≈ 27.4 µg/mL).

Question: And the GI50 [21]?
Answer: Its GI50 is > 250 µg/mL.

Question: And the GI90 (PANC-1)?
Answer: Its GI90 is > 250 µg/mL.

Question: What about the inhibition of growth at 30 µg/mL (Escherichia coli [22]) of the same molecule?
Answer: Its inhibition of growth at 30 µg/mL is 98.2%.

Question: What about the inhibition of growth at 1 µg/mL (Staphylococcus aureus [23]) of the same molecule?
Answer: Its inhibition of growth at 1 µg/mL is 85.7%.

Question: What about the inhibition of growth at 10 µg/mL [24] of the same molecule?
Answer: Its inhibition of growth at 10 µg/mL is 71%.

Question: And the inhibition of growth at 30 µg/mL [25]?
Answer: The inhibition of growth at 30 µg/mL was 93%.

Question: And the inhibition of growth at 1 µg/mL (Bacillus subtilis [26])?
Answer: The inhibition of growth at 1 µg/mL was 91.3%.

Question: And the inhibition of growth at 30 µg/mL (Bacillus subtilis [27])?
Answer: Its inhibition of growth at 30 µg/mL is 96.8%.

Question: What about the MIC (Staphylococcus aureus [28]) of the same molecule?
Answer: Its MIC is 39.3 µM (≈ 12.5 µg/mL).

Question: And the selectivity ratio [29]?
Answer: The selectivity ratio was 4.

Question: What about the IC50 [30] of the same molecule?
Answer: Its IC50 is 8.66 µM.

Question: And the MIC90 [30]?
Answer: The MIC90 was 87.5 µM (≈ 27.9 µg/mL).

Question: And the MIC (Bacillus subtilis [31])?
Answer: Its MIC is 7.91 µM (≈ 2.52 µg/mL).

Question: And the inhibition of growth at 30 µg/mL (Pseudomonas fluorescens [32])?
Answer: Its inhibition of growth at 30 µg/mL is 97.7%.

Question: And the selectivity ratio [33]?
Answer: Its selectivity ratio is 9.
